Reference: paper PMC10674894 (Viruses, 2023)

What was measured:
Vero cells = test: Cytotoxicity MTT assay in Vero cells (MNTD, CC50); assay type: cell-based, African green monkey
CHIKV DRDE-07 = test: In vitro screening against CHIKV (CPE inhibition and MTT cell viability); assay type: cell-based, chikungunya virus; conditions: for % Cell viability / CPE: Table S1, CHIKV-infected Vero cells; for % Cell viability / Cell Viability: 72 hpi; for % Cell viability: MTT assay; for CPE: arbitrary score of cytopathic effect at >48 hpi; for Cell Viability: CHIKV-infected Vero cells treated at MNTD, MTT, cell control + DMSO = 100%
[1] = maximum nontoxic dose in Vero cells, MTT

Compound | MNTD (Vero cells; Table S1, Vero cells) | % Cell viability (CHIKV DRDE-07) | CPE (CHIKV DRDE-07) | MNTD (Vero cells; [1]) | Cell Viability (CHIKV DRDE-07)
Cc1ccc(C2NC(=O)Oc3ccc4ccccc4c32)cc1 (stereo not drawn) [DCR66, 1-(4-methylphenyl)-1H,2H,3H-naphtho[1,2-e][1,3]oxazin-3-one] | 54 µM | 12.24% | ++++ (>60% (++++)) | – | –
Nc1nc(N)c2c(F)cccc2n1 [DCR 135, 5-fluoro-quinazoline-2,4-diamine] | 250 µM | – | ++ (50-30% (++)) | 250 µM | 61%
C#CCOC(=O)C1=C(C)NC(=O)NC1c1ccc(Cl)cc1 (stereo not drawn) [DCR88, prop-2-yn-1-yl 4-(4-chlorophenyl)-6-methyl-2-oxo-1,2,3,4-tetrahydropyrimidine-5-carboxylate] | 205.1 µM | 11.05% | ++++ (>60% (++++)) | – | –
COc1ccc(C2NC(=O)NC(C)=C2C(=O)OCCN(C)C)cc1 (stereo not drawn) [DCR112, 2-(dimethylamino)ethyl 4-(4-methoxyphenyl)-6-methyl-2-oxo-1,2,3,4-tetrahydropyrimidine-5-carboxylate] | 62.5 µM | 2.09% | ++++ (>60% (++++)) | – | –
C/C(=N\NC(=O)c1ccncc1)c1ccccc1N [DCR51, (E)-2-(1-(2-isonicotinoylhydrazono)ethyl)benzenaminium] | 62.5 µM | -2.93% | ++++ (>60% (++++)) | – | –
CCOc1ccc(C2c3c(ccc4ccccc34)Oc3ccc4ccccc4c32)cc1 [DCR114, 2‐(4‐ethoxyphenyl)‐13‐oxapentacyclo[12.8.0.0³,¹².0⁴,⁹.0¹⁷,²²]docosa‐1(14),3,5,7,9,11,15,17(22),18,20‐decaene] | 31.25 µM | 4.05% | ++++ (>60% (++++)) | – | –
COc1ccc(C2c3c(ccc4ccccc34)Oc3ccc4ccccc4c32)cc1 [DCR113, 2‐(4‐methoxyphenyl)‐13‐oxapentacyclo[12.8.0.0³,¹².0⁴,⁹.0¹⁷,²²]docosa‐1(14),3,5,7,9,11,15,17(22),18,20‐decaene] | 31.25 µM | 5.04% | ++++ (>60% (++++)) | – | –
O=C(N/N=C/c1ccccc1)c1cccnc1 [DCR14, (E)-N'-benzylidenenicotinohydrazide] | 31.25 µM | 22.93% | ++++ (>60% (++++)) | – | –
Clc1cccc(C2c3c(ccc4ccccc34)Oc3ccc4ccccc4c32)c1 [DCR116, 2‐(3‐chlorophenyl)‐13‐oxapentacyclo[12.8.0.0³,¹².0⁴,⁹.0¹⁷,²²]docosa‐1(14),3,5,7,9,11,15,17(22),18,20‐decaene] | 31.25 µM | 10.84% | ++++ (>60% (++++)) | – | –
CC(=O)NNC(=O)c1ccncc1 [DCR13, N'-acetylisonicotinohydrazide] | 62.5 µM | 15.07% | ++++ (>60% (++++)) | – | –
O=C(N/N=C/c1ccccc1Br)c1cccnc1 [DCR23, (E)-N'-(2-bromobenzylidene)nicotinohydrazide] | 15.6 µM | 28.01% | ++++ (>60% (++++)) | – | –
(E)-N'-(5-bromo-2-methoxybenzylidene)isonicotinohydrazide [DCR39] | 31.25 µM | 3.81% | ++++ (>60% (++++)) | – | –
O=C(NNC(=O)c1ccccc1Cl)c1ccncc1 [DCR10, N'-(2-chlorobenzoyl)isonicotinohydrazide] | 31.25 µM | 21.19% | ++++ (>60% (++++)) | – | –
COc1ccc(COC(=O)C2=C(C)NC(=O)NC2c2ccc(OC)cc2)cc1 (stereo not drawn) [DCR101, 4-methoxybenzyl 4-(4-methoxyphenyl)-6-methyl-2-oxo-1,2,3,4-tetrahydropyrimidine-5-carboxylate] | 250 µM | 7.02% | ++++ (>60% (++++)) | – | –
CCOc1ccc(/C=N/NC(=O)c2ccncc2)cc1OC [DCR32, (E)-N'-(4-ethoxy-3-methoxybenzylidene)isonicotinohydrazide] | 31.25 µM | 6.03% | ++++ (>60% (++++)) | – | –
O=C(N/N=C/c1ccccc1[N+](=O)[O-])c1cccnc1 [DCR20, (E)-N'-(2-nitrobenzylidene)nicotinohydrazide] | 31.25 µM | 22.69% | ++++ (>60% (++++)) | – | –
O=C(CCl)NNC(=O)c1cccnc1 [DCR8, N'-(2-chloroacetyl)nicotinohydrazide] | 31.25 µM | 13.8% | ++++ (>60% (++++)) | – | –
Nc1nc(N)c2ccc(F)cc2n1 [DCR 136, 7-fluoro-quinazoline-2,4-diamine] | 250 µM | – | ++ (50-30% (++)) | 250 µM | 54%

Compound | MNTD (Vero cells; Table S1, Vero cells) | % Cell viability (CHIKV DRDE-07) | CPE (CHIKV DRDE-07) | MNTD (Vero cells; [1]) | Cell Viability (CHIKV DRDE-07)
N#Cc1ccccc1N1CCCCC1 [DCR140, 2-Piperidin-1-yl-benzonitrile] | 250 µM | 14.97% | ++++ (>60% (++++)) | – | –
CC1=C(C(=O)OCCN(C)C)C(c2ccc(C)cc2)NC(=O)N1 (stereo not drawn) [DCR74, 2-(dimethylamino)ethyl 6-methyl-4-(4-methylphenyl)-2-oxo-1,2,3,4-tetrahydropyrimidine-5-carboxylate] | 31.25 µM | 12.75% | ++++ (>60% (++++)) | – | –
O=C(O)c1ccc(-c2cc(-c3ccc(O)cc3)nn2C(=O)c2cccnc2)cc1 [DCR62, 4-[3-(4-hydroxyphenyl)-1-(pyridine-3-carbonyl)-1H-pyrazol-5-yl]benzoic acid] | 31.25 µM | -27.93% | ++++ (>60% (++++)) | – | –
C/C(=N\NC(=O)c1ccncc1)c1ccccc1O [DCR49, (E)-N'-(1-(2-hydroxyphenyl)ethylidene)isonicotinohydrazide] | 62.5 µM | 48.9% | +++ (60-50% (+++)) | – | –
O=C(O)c1ccc(/C=N/NC(=O)c2ccncc2)cc1 [DCR43, (E)-4-((2-isonicotinoylhydrazono)methyl)benzoic acid] | 31.25 µM | 16.82% | ++++ (>60% (++++)) | – | –
c1cncc(C2c3c(ccc4ccccc34)Oc3ccc4ccccc4c32)c1 [DCR121, 3‐{13‐oxapentacyclo[12.8.0.0³,¹².0⁴,⁹.0¹⁷,²²]docosa‐1(14),3,5,7,9,11,15,17(22),18,20‐decaen‐2‐yl}pyridine] | 31.25 µM | 8.03% | ++++ (>60% (++++)) | – | –
O=C(O)c1ccc(/C=N/NC(=O)c2cccnc2)cc1 [DCR28, (E)-4-((2-nicotinoylhydrazono)methyl)benzoic acid] | 62.5 µM | 15.63% | ++++ (>60% (++++)) | – | –
O=C1NC(c2ccc(OC(F)(F)F)cc2)c2c(ccc3ccccc23)O1 (stereo not drawn) [DCR71, 1-[4-(trifluoromethoxy)phenyl]-1H,2H,3H-naphtho[1,2-e][1,3]oxazin-3-one] | 43.42 µM | 7.44% | ++++ (>60% (++++)) | – | –
CC1(C)CC(=O)C2=C(C1)OC1=C(C(=O)CC(C)(C)C1)C2c1ccc([N+](=O)[O-])cc1 [DCR126, 3,3,6,6‐tetramethyl‐9‐(4‐nitrophenyl)‐2,3,4,5,6,7,8,9‐octahydro‐1H‐xanthene‐1,8‐dione] | 15.6 µM | 17.99% | ++++ (>60% (++++)) | – | –
CCOc1cc(/C=N/NC(=O)c2ccncc2)ccc1O [DCR33, (E)-N'-(3-ethoxy-4-hydroxybenzylidene)isonicotinohydrazide] | 62.5 µM | 0% | ++++ (>60% (++++)) | – | –
COc1ccc(/C(=N\NC(=O)c2ccncc2)c2ccccc2)cc1 [DCR53, N'-[(1Z)-(4-methoxyphenyl)(phenyl)methylidene]pyridine-4-carbohydrazide] | 31.25 µM | 11.42% | ++++ (>60% (++++)) | – | –
COc1ccc(-c2nc(CC(C)=O)no2)cc1 [DCR76, 1-[5-(4-methoxyphenyl)-1,2,4-oxadiazol-3-yl]propan-2-one] | 125 µM | 19.42% | ++++ (>60% (++++)) | – | –
O=C(CCl)NNC(=O)c1ccncc1 [DCR12, N'-(2-chloroacetyl)isonicotinohydrazide] | 31.25 µM | 16.34% | ++++ (>60% (++++)) | – | –
O=C(c1cccnc1)n1nc(-c2ccc(O)cc2)cc1-c1ccc(Cl)cc1Cl [DCR54, 4-[5-(2,4-dichlorophenyl)-1-(pyridine-3-carbonyl)-1H-pyrazol-3-yl]phenol] | 15.62 µM | 8.73% | ++++ (>60% (++++)) | – | –
Brc1cc2c(c3ncccc13)Oc1ncccc1O2 [DCR 1, 5-bromo-7,12-dioxa-1,11-diaza-benzo[a]anthracene] | 50 µM | – | ++ (50-30% (++)) | 50 µM | 72%
O=C1NC(c2ccc(Cl)cc2)c2c(ccc3ccccc23)O1 (stereo not drawn) [DCR64, 1-(4-chlorophenyl)-1H,2H,3H-naphtho[1,2-e][1,3]oxazin-3-one] | 31.25 µM | -3.8% | ++++ (>60% (++++)) | – | –
COc1ccc(Br)cc1-c1cc(-c2ccc(O)cc2)nn1C(=O)c1cccnc1 [DCR61, 4-[5-(5-bromo-2-methoxyphenyl)-1-(pyridine-3-carbonyl)-1H-pyrazol-3-yl]phenol] | 31.25 µM | 12.22% | ++++ (>60% (++++)) | – | –
C/C(=N\NC(=O)c1cccnc1)c1c(O)ccc2ccccc12 [DCR47, (E)-N'-(1-(2-hydroxynaphthalen-1-yl)ethylidene)nicotinohydrazide] | 31.25 µM | 6.42% | ++++ (>60% (++++)) | – | –
